{"source": "patent US20250134858A1", "about": "“COMPOSITIONS AND METHODS FOR TREATMENT OF NAFLD AND NASH AND RELATED DYSLIPIDEMIAS” (EpicentRx, Inc., priority 2022, published 2025)", "format_in_all_cases": "in vivo, rat", "key": {"[1]": {"test_system": "Sprague-Dawley rats fed high-fat atherogenic diet (HFD)", "assay": "Relative LDL, HDL, TG and TC levels in rats fed a high-fat atherogenic diet", "method": "(§1) Sprague-Dawley rats (6-weeks-old male weighing about 180 grams) were randomly divided into three groups. The first group of the rats were subjected to a normal diet (ND) for a time period of 12 weeks. The second and the third group of the rats were subjected to a high-fat atherogenic diet (HFD, 40 kcal % fat, 1.25% cholesterol, 0.5% sodium cholate) for the time period of 12 weeks. The third HFD group of the rats were treated with about 5 mg/kg of RRx-001 every other week for the last 8 weeks before characterization (“HFD-RRx-001”). Several markers of inflammation and steatosis were evaluated."}, "[2]": {"test_system": "Sprague-Dawley rats fed high-fat atherogenic diet (HFD)", "assay": "NASH markers in HFD rats: hepatic TG, hepatic TC, steatosis score, serum ALT and AST", "details": "about 5 mg/kg every other week for last 8 of 12 weeks", "method": "as §1\n(§2) In a trial that tested for markers related to NASH, every other week administrations of RRx-001 reduced hepatic steatosis scores, serum ALT and AST levels, and hepatic levels of cholesterol and triglycerides in rats fed the HFD."}, "[3]": {"test_system": "NLRP3 inflammasome", "assay": "Serum NLRP3, IL-1β and caspase-1 levels (ELISA) in HFD rats", "details": "about 5 mg/kg every other week for last 8 of 12 weeks", "method": "as §1, §2"}}}
{"molecule": "O=C(CBr)N1CC([N+](=O)[O-])([N+](=O)[O-])C1", "note": "[RRx-001, 2-bromo-1-(3,3-dinitroazetidin-1-yl)ethan-1-one]", "values": [{"measurement": "relative amount of LDL", "setting": "[1]; about 5 mg/kg RRx-001 every other week for last 8 of 12 weeks, ND normalized to 1.0, HFD alone approximately 6, FIG. 1A", "result": "approximately 4 times the LDL amount of the ND rats"}, {"measurement": "relative amount of HDL", "setting": "[1]; about 5 mg/kg every other week for last 8 of 12 weeks, ND normalized to 1, HFD alone approximately 0.2, FIG. 1B", "result": "approximately 0.4 relative to the ND rats"}, {"measurement": "relative amount of total cholesterol (TC)", "setting": "[1]; about 5 mg/kg every other week for last 8 of 12 weeks, ND normalized to 1, HFD alone approximately 2.7, FIG. 1D", "result": "approximately 1.8 times relative to the ND rats"}, {"measurement": "relative amount of triglycerides (TG)", "setting": "[1]; about 5 mg/kg every other week for last 8 of 12 weeks, ND normalized to 1, HFD alone approximately 6.2, FIG. 1C", "result": "approximately 4.4 relative to the ND rats"}, {"measurement": "relative amount of hepatic TC", "setting": "[2]; ND normalized to 1, HFD alone approximately 4.3, FIG. 3B", "result": "approximately 3.8 times relative to the ND rats"}, {"measurement": "relative amount of hepatic TGs", "setting": "[2]; ND normalized to 1, HFD alone approximately 8.2, FIG. 3A", "result": "approximately 5.7 times relative to the amounts of the ND rats"}, {"measurement": "relative amount of IL-1β", "setting": "[3]; ND normalized to 1, HFD alone approximately 1.7, FIG. 5B", "result": "approximately 1.2 times relative to the amount in the ND rats"}, {"measurement": "relative amount of serum NLRP3", "setting": "[3]; ND normalized to 1, HFD alone approximately 1.75, FIG. 5A", "result": "approximately 1.3 times relative to the rats that were fed the ND"}, {"measurement": "relative amount of caspase-1", "setting": "[3]; ND normalized to 1, HFD alone approximately 2.0, FIG. 5C", "result": "approximately 1.3 times relative to the rats that were fed the ND"}]}
